Columns and labels:
[1] = Release testing of betaine leaching from shrimp feed pellets in artificial seawater; type: physicochemical
Protocol: An aquafeed comprising the composition of the invention (or the composition itself) is placed in a rotating basket and immersed in 500 ml of artificial seawater (547.6 mM NaCl, 56.8 mM MgSO4.7H2O, 2.4 mM NaHCO3, adjusted to pH 8,2 with 1M NaOH), and held at 30° C. Aliquots of sample are withdrawn at selected time-points (1, 3, 5, 10, 15, 30, 45, 60 and 90 minutes). The volume of dissolution media is held constant through the re-addition of aliquots (30° C.) of fresh media to compensate. The aliquots are analysed by a suitable analytical technique (e.g. HPLC) in order to determine the concentration of the hydro-soluble component in the dissolution media.
An aquafeed sample (30 g) was placed in a rotating basket and immersed in 500 ml of artificial seawater (pH 8,2), held at 30° C. 5 ml aliquots of sample were withdrawn at selected time-points (1, 3, 5, 10, 15, 30, 45, 60 and 90 minutes). The volume of dissolution media was held constant (500 ml) through the re-addition of 5 ml aliquots of fresh media (30° C.). These samples were filtered on […], frozen and analysed by HPLC in Advanced Analysis.
Release curves (see FIGS. 1 to 3) show the amount of betaine leached as a percentage of weight of available net betaine (% w/w).

[2] = pure form; water and lower alcohols; cited from earlier work

- proportion of available betaine leached over 90 minutes ([1]; pellets with increased betaine content (c. 5 and 10 kg/T, FIGS. 2 and 3), artificial seawater pH 8,2, 30° C., 90 minutes): ≤ 40%
- leach profile of pellets (comparison in words) ([1]; shrimp feed pellets c. 2, 5 and 10 kg betaine/T, artificial seawater, 30° C., up to 90 minutes): fastest and most extensive leaching
- available betaine dissolved after 90 minutes ([1]; shrimp feed pellets prepared with c. 2 kg betaine/T, artificial seawater pH 8,2, 30° C., 90 minutes, FIG. 1): ≤ 60%
SMILES: C[N+](C)(C)CC(=O)[O-] [Betafin BT, trimethylglycine]
- solubility (in words) [2]: readily soluble in water and lower alcohols
